Measured values from patent US20110118277A1, “METHOD OF TREATING LIVER DISEASE” (priority 2003, published 2011).

What was measured:
norepinephrine = settings: 6-OHDA 100 mg/kg i.p. regimen, previously shown; cited from earlier work
healthy rats = healthy rats treated chronically; cited from earlier work
NK-T cells = assay: Flow cytometry of liver NK-T cells in HMCDE-fed mice; type: in vivo, mouse; settings: HMCDE-treated mice; HMCDE alone 8±1%; mean±SEM
Experimental: Briefly, livers were carefully removed and homogenized in Stomacher80 (Seawood, England). The homogenate was then passed through a 100-μm wire mesh and liver cells were collected by centrifugation at 450 g. Mononuclear cells were purified from this fraction by centrifugation at 900 g over 35% Percoll gradients (Amersham Pharmacia Biotech) and incubated with normal mouse serum (Sigma, St Louis, Mo.) and Fc-receptor block (anti-CD16/CD32) to prevent nonspecific binding, plus APC-conjugated anti-mouse Thy-1.2 (the C57BL-6 form of the Thy-1 antibody) and antibodies directed against hematopoietic lineage markers (LIN, a mix of anti-mouse CD4, CD8, CD3, CD45, CD19, Mac-1, Gr-1, Ter119). For NK-T cell labelling, the mononuclear cells were incubated with FTTC-conjugated anti-mouse NK-1.1 and PE-conjugated anti-mouse CD3. All antibodies were from Pharmingen except anti-mouse Ter119, which was from Cedarline lab, Canada. After incubation, pellets were washed to remove unbound antibodies, fixed with 2% formaldehyde and evaluated by FACS (Becton Dickenson). As described in Science 1999; 284:1168-1170, LN^−ve/Thy-1^+ve cells, were classified as putative bone marrow-derived, hepatic progenitor cells. Data was analyzed by Cell Quest software (Becton Dickenson) to determine changes in these cell populations in different treatment groups.

[1] = system: C57BL-6 mice fed HMCDE diet; assay: HMCDE diet-induced liver injury in mice: body weight, liver mass, histology, serum ALT, tolerability; type: in vivo, mouse
Experimental: C57BL-6 mice, 10-18 weeks old, were from Jackson Laboratory (Bar Harbor, Me.) were subjected to the following experiments.
In addition to choline deficiency the diet used here was also 50% deficient in methionine to enhance oxidative injury to the liver, This diet was administered with ethionine (0.15%) in drinking water (Hepatology 2001; 34; 519-522) and the combination treatment is hereafter referred to as half methionine choline deficient diet plus ethionine (HMCDE).
Chemical sympathectomy was achieved by intra-peritoneal (IP) injection of 6-hydroxydopamine (6-OHDA), 100 mg/kg for 5 consecutive days as described in Ann Surg 2001; 233:266-275. Thereafter, 6-OHDA was administered at 100 mg/kg i.p., three times per week to ensure continued sympathectomy.
Mice were divided into 4 groups, with each group containing 10 to 12 animals. […] Therefore, final results are derived from ˜100 mice (10-12 mice/group/experiment×2 experiments).
All mice were weighed at the beginning of the feeding period and weekly thereafter until killed. At the time of sacrifice, sera were collected from all the animals in each group and liver tissue from half the animals in each group. Collected liver tissues were either fixed in buffered formalin, preserved in OCT compound (Sakura, Torrance, Calif.) and processed for histology or snap frozen in liquid nitrogen and stored at −80° C. until RNA was isolated. The livers from the remaining animals in each group were prepared for flow cytometry as described below.
Wedges of liver from each of the mice were prepared for histology and immunochemistry as described previously (Am J Pathol 2002: 161:5210530 and Nat. Med. 2000; 6: 998-1003). For histology, tissues were formalin fixed, paraffin embedded and […] sections were stained with hematoxylin and eosin (H&E). Coded samples were examined by an experienced liver pathologist who was blinded to treatment groups. Hepatocellular fat accumulation was scored as, no fat 0, focal fat accumulation in <1% of the hepatocytes=F, fat in 1-30% of the hepatocytes 1+, fat in 31-60% of the hepatocytes=2+, and fat in 61-100% of the hepatocytes3+. To evaluate the amount of hepatocyte necrosis, the number of necrotic hepatocytes was counted in 10 randomly selected fields with a 20× lens.
Sera from all the animals were analysed for alanine aminotransferase (ALT) activity by the Clinical Chemistry laboratory of the Johns Hopkins Hospital.

TNF-α = assay: Hepatic expression of TNF-α mRNA in whole liver RNA; type: in vivo, mouse; settings: 3 controls and 3 PRZ-treated mice
From the text: The latter possibility merits further investigation because it has been reported that TNF-a increases in mice that are fed choline-deficient diets and that proliferating hepatic oval cells produce this cytokine. Moreover, it has been reported that TNF-α is required for oval cell expansion because this response is abrogated by genetic disruption of TNFR1. These observations are particularly intriguing because TNF-α and TNFR1 are necessary for liver regeneration after PH and other types of liver injury. There is strong evidence for cross talk between signaling mechanisms that are activated by TNF-α and those that are modulated by sympathetic neurotransmitters, such as NE. In addition, NE regulates TNF production and vice versa. Thus, SNS inhibition may promote HPC accumulation and decrease liver injury indirectly, by effecting TNF-α activity. […] However, before firm conclusions can be drawn, these studies must be extended to include more animals and assays for TNF-α protein and activity will be necessary.

[2] = system: Mouse hepatic oval cells (HOC); assay: Oval cell growth in culture (WST-8 cell number assay); type: cell-based
Experimental: Mouse hepatic oval cells (HOC) (from Dr. Bryon Petersen, University of Florida College of Medicine, Gainesville, Fla.) were maintained in culture with Iscove's modified DMEM according to the protocol described in PNAS 99: 8078-8083, 2002. To confirm that the cells retained their oval cell phenotype in our hands, expression of the embryonic isoform of pyruvate kinase (M2-PK) was evaluated by immunocytochemistry and immunoblot.
Sub-confluent HOC were harvested by gentle trypsinisation and resuspended in serum-free Iscove's modified Dulbecco's minimal essential medium (DMEM), at a density of 5,000 cells/100 μl/well in 96-well plates. […] After 44 hours, cell numbers were assessed by a further 4 h incubation with WST-8 tetrazolium reagent (Dojindo Molecular Technologies, Gaithersburg, Md.) as described in J Clin Invest 106: 501-509, 2000. In viable cells, the tetrazolium salt is metabolized to a colorimetric dye and cell number is proportional to the signal intensity at 450 nm Therefore, this assay reliably detects treatment-induced changes in cell number.
Oval cells were cultured in serum free medium (SF), serum or serum plus increasing concentrations of NE (a) or ISO (c). After 48 hours, the numbers of cells in culture were evaluated. […] Cell numbers were determined after 48 hours.

| SMILES | norepinephrine in rodent tissues (norepinephrine) | liver weight, body weight, ratio and serum ALT (healthy rats) | numbers of NK-T cells in the liver, % liver mononuclear cells (NK-T cells) [%] | weight loss versus HMCDE group ([1]; FIG. 1, 4 weeks of feeding, P<0.05) | liver cell death / necrosis, representative liver section ([1]; FIG. 3A, H&E) | hepatocellular fat accumulation score, representative liver section ([1]; FIG. 3A, H&E, representative HMCDE animal 2+) | fat score versus HMCDE alone ([1]; FIG. 3B) | numbers of necrotic hepatocytes versus HMCDE diet alone ([1]; FIG. 3C, P<0.05) | serum alanine aminotransferase (ALT) versus HMCDE-fed mice ([1]; FIG. 3D, P<0.03) | mean body weight lost ([1]; mice fed HMCDE diet, 4 weeks, HMCDE alone lost 3 g) [g] | body weight lost, % of starting body weight ([1]; mice fed HMCDE diet, 4 weeks, HMCDE alone lost 12%) [%] | hepatic TNF-α gene expression versus HMCDE-treated controls (TNF-α) | effect on proliferation induced by NE plus ISO ([2]; PRZ 10 μM, NE (100 nM)+ISO (100 nM)) | effect on NE-induced oval cell proliferation ([2]; prazosin 10 μM, pertussis toxin 100 ng/ml, PD98059 20 μM, SB202190 10 μM, 48 hours) |
| --- | --- | --- | --- | --- | --- | --- | --- | --- | --- | --- | --- | --- | --- | --- |
| NCCc1cc(O)c(O)cc1O [6-OHDA, 6-hydroxydopamine] | virtually deplete norepinephrine in rodent tissues | liver weight, body weight and liver weight to body weight ratios increase significantly without any associated increase in serum ALT values | 3.6 ± 0.6 | lost less weight than the HMCDE group | minimal necrosis | F+ | significantly less fat than the HMCDE alone group | reduced | lower ALT levels | 2 | 8 |  |  |  |
| COc1cc2nc(N3CCN(C(=O)c4ccco4)CC3)nc(N)c2cc1OC [PRZ, prazosin] |  |  |  |  |  |  |  |  |  |  |  | No differences in TNF-a gene expression were detected | blocks catecholamine-induced proliferation | significantly attenuated |
